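GI50: concentration for 50% inhibition of growth. The concentration for full growth arrest is given as TGI.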
Key:
Experiment in all cases: NCI anticancer screen, dose series, 384-well format
[1] = tested on: CCRF-CEM leukemia
[2] = tested on: MALME-3M melanoma
[3] = tested on: SF-539 CNS
[4] = tested on: SN12C renal
[5] = tested on: UO-31 renal
[6] = tested on: UACC-257 melanoma
[7] = tested on: MDA-MB-435 melanoma
[8] = tested on: NCI-H460 NSCLC
[9] = tested on: OVCAR-5 ovarian
[10] = tested on: HL-60(TB) leukemia
[11] = tested on: T-47D breast
[12] = tested on: ACHN renal
[13] = tested on: RPMI-8226 leukemia

Structure (SMILES) | GI50 [1] [µM] | TGI [1] [µM] | GI50 [2] [µM] | TGI [2] [µM] | GI50 [3] [µM] | TGI [3] [µM] | GI50 [4] [µM] | TGI [4] [µM] | GI50 [5] [µM] | TGI [5] [µM] | GI50 [6] [µM] | TGI [6] [µM] | GI50 [7] [µM] | TGI [7] [µM] | GI50 [8] [µM] | TGI [8] [µM] | GI50 [9] [µM] | TGI [9] [µM] | GI50 [10] [µM] | TGI [10] [µM] | also measured
Cc1ncsc1-c1ccc(CNC(=O)[C@@H]2C[C@@H](O)CN2C(=O)[C@@H](NC(=O)C2(C#N)CC2)C(C)(C)C)cc1 | > 100 | > 100 | > 100 | > 100 | > 100 | > 100 | > 100 | > 100 | > 100 | > 100 | > 100 | > 100 | > 100 | > 100 | > 100 | > 100 | > 100 | > 100 | > 100 | > 100 | GI50 [11]: > 100 µM; TGI [11]: > 100 µM; GI50 [12]: > 100 µM; TGI [12]: > 100 µM; GI50 [13]: 46.7 µM; TGI [13]: > 90.7 µM
O=C(NCc1ccncc1)C12CC3CC(C1)CC(c1ccc(Cl)cc1)(C3)C2 | 6.92 | 17.6 | 15.6 | 29.1 | 16 | 29.7 | 14.4 | 27.5 | 11.9 | 24.4 | 13.7 | 26.7 | 16.5 | 30.2 | 12.7 | 25.9 | 18 | 31.9 | 2.75 | 6.12 | GI50 [11]: 9.72 µM; TGI [11]: 23 µM; GI50 [12]: 15.1 µM; TGI [12]: 28.6 µM; GI50 [13]: 3.59 µM; TGI [13]: 9.73 µM

Reference: PubChem BioAssay (NCI)
